The values that follow come from paper PMC10674657, “Quinazolin-4-one/3-cyanopyridin-2-one Hybrids as Dual Inhibitors of EGFR and BRAF^V600E: Design, Synthesis, and Antiproliferative Activity” (Pharmaceuticals, 2023).

The nature of data set [1]: Cell viability (cytotoxicity) MTT assay in non-tumorigenic MCF-10A cells. The class given is cell-based, human. The following applies: human, MCF-10A mammary epithelial cells.
Data set [2] deals with A-549 human lung carcinoma cell line. Briefly: Antiproliferative assay, A-549. The following applies: Homo sapiens, A549, read-out: Antiproliferative Activity IC50 ± SEM, A-549.
The test system of data set [3] is MCF-7 human breast adenocarcinoma cell line. Briefly: Antiproliferative assay, MCF-7. The following applies: Homo sapiens, MCF7, read-out: Antiproliferative Activity IC50 ± SEM, MCF-7.
In data set [4] the test system is HT-29 human colon cancer cell line. Kind of data set: Antiproliferative assay, HT-29. To be noted: Homo sapiens, HT-29, read-out: Antiproliferative Activity IC50 ± SEM, HT-29.
Data set [5] concerns Panc-1 human pancreatic cancer cell line. Briefly: Antiproliferative assay, Panc-1. To be noted: Homo sapiens, PANC-1, read-out: Antiproliferative Activity IC50 ± SEM, Panc-1.
The test system of data set [6] is four cancer cell lines (A-549, MCF-7, Panc-1, HT-29). Briefly: Antiproliferative assay, average over four cancer cell lines (GI50). The following applies: Homo sapiens, read-out: Average IC50 (GI50).
Data set [7] has as its target T1, BRAF^V600E (Mus musculus, UniProt P28028, V585E).
T1 construct: Mouse full-length GST-tagged; purchased Invitrogen PV3849
Briefly: BRAF V600E kinase inhibitory assay. The class given is biochemical. To be noted: for IC50: BRAF V600E, mean ± SEM, read-out: BRAF Inhibition IC50 ± SEM; for fold less potent than Erlotinib, BRAF^V600E: ratio of IC50 to Erlotinib. The source says: Mouse full-length GST-tagged
developed using a phosphor screen.

The target of data set [8] is EGFR (Homo sapiens, UniProt P00533). Briefly: EGFR-TK inhibitory assay. To be noted: for fold less potent than Erlotinib, EGFR: ratio of IC50 to Erlotinib.
Sequence of EGFR (P00533 669-1210): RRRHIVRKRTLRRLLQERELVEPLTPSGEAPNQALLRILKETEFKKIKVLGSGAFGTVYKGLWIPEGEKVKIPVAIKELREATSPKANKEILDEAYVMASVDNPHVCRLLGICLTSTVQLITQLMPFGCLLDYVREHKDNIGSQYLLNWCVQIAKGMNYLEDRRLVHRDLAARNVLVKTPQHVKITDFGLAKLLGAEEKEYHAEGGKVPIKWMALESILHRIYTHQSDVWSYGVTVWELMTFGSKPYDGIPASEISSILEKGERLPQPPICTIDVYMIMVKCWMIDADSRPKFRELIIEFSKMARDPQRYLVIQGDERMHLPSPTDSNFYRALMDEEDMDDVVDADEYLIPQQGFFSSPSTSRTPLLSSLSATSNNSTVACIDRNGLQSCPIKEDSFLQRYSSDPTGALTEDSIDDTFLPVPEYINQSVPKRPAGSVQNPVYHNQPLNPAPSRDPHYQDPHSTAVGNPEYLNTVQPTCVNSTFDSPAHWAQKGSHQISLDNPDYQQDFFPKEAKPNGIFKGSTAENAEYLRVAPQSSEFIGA
Data set [9] concerns BRAF^V600E. The following applies: cited from earlier work.

The term viability denotes the share of living cells, or the viability signal relative to a control. The IC50 is the concentration needed to halve the response being measured.

T1 sequence (P28028 whole entry V585E): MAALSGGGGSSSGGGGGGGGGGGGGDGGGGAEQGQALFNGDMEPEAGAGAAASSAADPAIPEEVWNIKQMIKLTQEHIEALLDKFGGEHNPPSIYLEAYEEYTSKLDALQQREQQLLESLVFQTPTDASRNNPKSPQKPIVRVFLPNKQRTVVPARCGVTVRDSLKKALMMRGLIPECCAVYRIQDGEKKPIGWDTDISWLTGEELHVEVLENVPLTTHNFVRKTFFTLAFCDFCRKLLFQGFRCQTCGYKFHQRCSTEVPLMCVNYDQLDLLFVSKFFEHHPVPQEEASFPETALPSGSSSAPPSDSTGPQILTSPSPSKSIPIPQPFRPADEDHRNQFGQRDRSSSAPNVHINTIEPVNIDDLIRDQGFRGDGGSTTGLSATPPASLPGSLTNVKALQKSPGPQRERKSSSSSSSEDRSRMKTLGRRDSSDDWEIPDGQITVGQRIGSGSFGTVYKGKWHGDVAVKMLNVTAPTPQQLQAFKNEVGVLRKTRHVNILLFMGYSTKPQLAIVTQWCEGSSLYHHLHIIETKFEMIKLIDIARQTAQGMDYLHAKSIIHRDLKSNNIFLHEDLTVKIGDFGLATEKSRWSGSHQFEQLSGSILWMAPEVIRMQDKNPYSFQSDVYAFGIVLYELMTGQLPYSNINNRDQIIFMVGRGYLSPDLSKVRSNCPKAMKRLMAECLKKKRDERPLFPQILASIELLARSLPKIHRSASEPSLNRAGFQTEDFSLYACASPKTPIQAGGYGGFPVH

Take `CCn1c(SCC(=O)Nc2ccc(-c3cc(-c4ccccc4)c(C#N)c(=O)[nH]3)cc2)nc2ccccc2c1=O` [Compound 7, N-(4-(5-Cyano-6-oxo-4-phenyl-1,6-dihydropyridin-2-yl)phenyl)-2-((3-ethyl-4-oxo-3,4-dihydroquinazolin-2-yl)thio)acetamide]: the viability at 4 days, 50 µM in data set [1] turned out to be 90%. Besides, the concentration for half-maximal inhibition (IC50) was determined as 9.2 ± 0.8 µM in [2]; 9.1 ± 0.8 µM in [3]; 9.8 ± 0.9 µM in data set [4]; 9.3 ± 0.8 µM in data set [5]; 9.3 µM in data set [6].

The molecule `CCn1c(SCC(=O)Nc2ccc(-c3cc(-c4ccc(OC)cc4)c(C#N)c(=O)[nH]3)cc2)nc2ccccc2c1=O` [Compound 8, N-(4-(5-Cyano-4-(4-methoxyphenyl)-6-oxo-1,6-dihydropyridin-2-yl)phenyl)-2-((3-ethyl-4-oxo-3,4-dihydroquinazolin-2-yl)thio)acetamide] came in with a viability at 4 days, 50 µM in [1] of 89%. Moreover, the IC50 in data set [7] stood at 0.22 ± 0.015 µM; in data set [8], 0.16 ± 0.012 µM; in data set [2], 1.5 ± 0.1 µM; in data set [3], 1.4 ± 0.1 µM; in data set [4], 1.7 ± 0.1 µM; in data set [5], 1.7 ± 0.1 µM. For the same molecule, the IC50 in data set [6] amounted to 1.6 µM.

The molecule `CCn1c(SCC(=O)Nc2ccc(-c3cc(-c4ccc(Cl)cc4)c(C#N)c(=O)[nH]3)cc2)nc2ccccc2c1=O` [Compound 9, N-(4-(4-(4-Chlorophenyl)-5-cyano-6-oxo-1,6-dihydropyridin-2-yl)phenyl)-2-((3-ethyl-4-oxo-3,4-dihydroquinazolin-2-yl)thio)acetamide] came in with a viability at 4 days, 50 µM in [1] of 96%. Besides, the IC50 in [7] came to 0.29 ± 0.02 µM; in [8], 0.19 ± 0.015 µM; in [2], 1.8 ± 0.1 µM; in data set [3], 1.6 ± 0.1 µM; in [4], 2 ± 0.1 µM; in [5], 2 ± 0.1 µM. Further, the concentration for half-maximal inhibition (IC50) in data set [6] came out at 1.8 µM.

In the case of `CCn1c(SCC(=O)Nc2ccc(-c3cc(-c4ccc(Br)cc4)c(C#N)c(=O)[nH]3)cc2)nc2ccccc2c1=O` [Compound 10, N-(4-(4-(4-Bromophenyl)-5-cyano-6-oxo-1,6-dihydropyridin-2-yl)phenyl)-2-((3-ethyl-4-oxo-3,4-dihydroquinazolin-2-yl)thio)acetamide], in [1], the viability at 4 days, 50 µM was found to be 88%. The concentration for half-maximal inhibition (IC50) in data set [2] is 2.4 ± 0.2 µM; in data set [3] it was 2.2 ± 0.45 µM; in data set [4], 2.7 ± 0.2 µM; in data set [5], 2.6 ± 0.2 µM; in data set [6], 2.5 µM.

For the molecule `CCn1c(SCC(=O)Nc2ccc(-c3cc(-c4ccc(F)cc4)c(C#N)c(=O)[nH]3)cc2)nc2ccccc2c1=O` [Compound 11, N-(4-(5-Cyano-4-(4-fluorophenyl)-6-oxo-1,6-dihydropyridin-2-yl)phenyl)-2-((3-ethyl-4-oxo-3,4-dihydroquinazolin-2-yl)thio)acetamide], the viability at 4 days, 50 µM in data set [1] was 91%. For the same molecule, the concentration for half-maximal inhibition (IC50) in data set [2] was found to be 3.7 ± 0.3 µM; in [3], 3.6 ± 0.3 µM; in data set [4] it was 4 ± 0.3 µM; in [5], 3.8 ± 0.3 µM; in data set [6] it was 3.8 µM.

`N#Cc1c(-c2ccccc2)cc(-c2ccc(NC(=O)CSc3nc4ccccc4c(=O)n3-c3ccccc3)cc2)[nH]c1=O` [Compound 12, N-(4-(5-Cyano-6-oxo-4-phenyl-1,6-dihydropyridin-2-yl)phenyl)-2-((4-oxo-3-phenyl-3,4-dihydroquinazolin-2-yl)thio)acetamide] had a viability at 4 days, 50 µM in [1] of 86%. In addition, the concentration for half-maximal inhibition (IC50) worked out at 7.5 ± 0.6 µM in [2]; 7.2 ± 0.7 µM in data set [3]; 7.7 ± 0.7 µM in data set [4]; 7.8 ± 0.7 µM in data set [5]; 7.5 µM in data set [6].

For `COc1ccc(-c2cc(-c3ccc(NC(=O)CSc4nc5ccccc5c(=O)n4-c4ccccc4)cc3)[nH]c(=O)c2C#N)cc1` [Compound 13, N-(4-(5-Cyano-4-(4-methoxyphenyl)-6-oxo-1,6-dihydropyridin-2-yl)phenyl)-2-((4-oxo-3-phenyl-3,4-dihydroquinazolin-2-yl)thio)acetamide], the viability at 4 days, 50 µM in data set [1] was determined as 87%. In addition, the IC50 in data set [2] came to 3.2 ± 0.3 µM; in data set [3], 3.1 ± 0.3 µM; in [4], 3.5 ± 0.3 µM; in data set [5] it was 3.4 ± 0.3 µM; in [6], 3.3 µM.

The molecule `N#Cc1c(-c2ccc(Cl)cc2)cc(-c2ccc(NC(=O)CSc3nc4ccccc4c(=O)n3-c3ccccc3)cc2)[nH]c1=O` [Compound 14, N-(4-(4-(4-Chlorophenyl)-5-cyano-6-oxo-1,6-dihydropyridin-2-yl)phenyl)-2-((4-oxo-3-phenyl-3,4-dihydroquinazolin-2-yl)thio)acetamide] yielded a viability at 4 days, 50 µM in [1] of 89%. Further, the IC50 in data set [2] amounted to 4.1 ± 0.4 µM; in [3] it was 3.9 ± 0.4 µM; in [4], 4.2 ± 0.4 µM; in data set [5], 4.2 ± 0.4 µM; in data set [6], 4.1 µM.

Turning to `N#Cc1c(-c2ccc(Br)cc2)cc(-c2ccc(NC(=O)CSc3nc4ccccc4c(=O)n3-c3ccccc3)cc2)[nH]c1=O` [Compound 15, N-(4-(4-(4-Bromophenyl)-5-cyano-6-oxo-1,6-dihydropyridin-2-yl)phenyl)-2-((4-oxo-3-phenyl-3,4-dihydroquinazolin-2-yl)thio)acetamide], the viability at 4 days, 50 µM in data set [1] came to 87%. The half-inhibitory concentration (IC50) turned out to be 4.7 ± 0.4 µM in data set [2]; 4.6 ± 0.4 µM in data set [3]; 4.9 ± 0.4 µM in data set [4]; 5 ± 0.4 µM in [5]; 4.8 µM in data set [6].

For the molecule `N#Cc1c(-c2ccc(F)cc2)cc(-c2ccc(NC(=O)CSc3nc4ccccc4c(=O)n3-c3ccccc3)cc2)[nH]c1=O` [Compound 16, N-(4-(5-Cyano-4-(4-fluorophenyl)-6-oxo-1,6-dihydropyridin-2-yl)phenyl)-2-((4-oxo-3-phenyl-3,4-dihydroquinazolin-2-yl)thio)acetamide], the viability at 4 days, 50 µM in data set [1] stood at 89%. In addition, the half-maximal inhibitory concentration (IC50) in data set [2] worked out at 4.8 ± 0.5 µM; in data set [3], 4.7 ± 0.4 µM; in data set [4] it was 5.1 ± 0.5 µM; in data set [5], 5.1 ± 0.5 µM; in data set [6], 4.9 µM.

For `C=CCn1c(SCC(=O)Nc2ccc(-c3cc(-c4ccccc4)c(C#N)c(=O)[nH]3)cc2)nc2ccccc2c1=O` [Compound 17, 2-((3-Allyl-4-oxo-3,4-dihydroquinazolin-2-yl)thio)-N-(4-(5-cyano-6-oxo-4-phenyl-1,6-dihydropyridin-2-yl)phenyl)acetamide], the viability at 4 days, 50 µM in [1] was 89%. In addition, the concentration for half-maximal inhibition (IC50) in [2] stood at 8.4 ± 0.7 µM; in data set [3], 8.1 ± 0.7 µM; in [4] it was 9 ± 0.7 µM; in data set [5], 8.9 ± 0.7 µM; in [6], 8.6 µM.

On to `C=CCn1c(SCC(=O)Nc2ccc(-c3cc(-c4ccc(OC)cc4)c(C#N)c(=O)[nH]3)cc2)nc2ccccc2c1=O` [Compound 18, 2-((3-Allyl-4-oxo-3,4-dihydroquinazolin-2-yl)thio)-N-(4-(5-cyano-4-(4-methoxyphenyl)-6-oxo-1,6-dihydropyridin-2-yl)phenyl)acetamide], for which the viability at 4 days, 50 µM in [1] stood at 90%. The IC50 in data set [7] came to 0.14 ± 0.01 µM; in [8], 0.11 ± 0.01 µM; in data set [2], 1.1 ± 0.1 µM; in [3] it was 1 ± 0.1 µM; in [4], 1.3 ± 0.1 µM; in data set [5], 1.3 ± 0.1 µM. In addition, the IC50 in data set [6] is 1.2 µM. For the same molecule, in [7], the “fold less potent than Erlotinib, BRAF^V600E” value is given as 2 fold. Also, the “fold less potent than Erlotinib, EGFR” value in data set [8] stood at 1.4 fold.

As for `C=CCn1c(SCC(=O)Nc2ccc(-c3cc(-c4ccc(Cl)cc4)c(C#N)c(=O)[nH]3)cc2)nc2ccccc2c1=O` [Compound 19, 2-((3-Allyl-4-oxo-3,4-dihydroquinazolin-2-yl)thio)-N-(4-(4-(4-chlorophenyl)-5-cyano-6-oxo-1,6-dihydropyridin-2-yl)phenyl)acetamide], in data set [1], the viability at 4 days, 50 µM was determined as 91%. Besides, the IC50 in data set [7] is 0.19 ± 0.012 µM; in data set [8], 0.14 ± 0.011 µM; in data set [2] it was 1.3 ± 0.1 µM; in [3], 1.2 ± 0.08 µM; in data set [4], 1.6 ± 0.1 µM; in [5], 1.6 ± 0.1 µM. Also, in data set [6], the IC50 came out at 1.4 µM. The “fold less potent than Erlotinib, BRAF^V600E” value in data set [7] was 3 fold. Further, the “fold less potent than Erlotinib, EGFR” value in data set [8] is on record as 1.8 fold.

As to `C=CCn1c(SCC(=O)Nc2ccc(-c3cc(-c4ccc(F)cc4)c(C#N)c(=O)[nH]3)cc2)nc2ccccc2c1=O` [Compound 21, 2-((3-Allyl-4-oxo-3,4-dihydroquinazolin-2-yl)thio)-N-(4-(5-cyano-4-(4-fluorophenyl) -6-oxo-1,6-dihydropyridin-2-yl)phenyl)acetamide], the viability at 4 days, 50 µM in data set [1] amounted to 87%. Moreover, the concentration for half-maximal inhibition (IC50) in [2] is 2.1 ± 0.2 µM; in data set [3], 1.9 ± 0.1 µM; in data set [4], 2.2 ± 0.1 µM; in data set [5] it was 2.2 ± 0.2 µM; in data set [6], 2.1 µM.

Consider `COc1cccc2c1C(=O)c1c(O)c3c(c(O)c1C2=O)C[C@@](O)(C(=O)CO)C[C@@H]3O[C@H]1C[C@H](N)[C@H](O)[C@H](C)O1` [Doxorubicin, reference compound], for which the IC50 in data set [2] turned out to be 1.2 ± 0.1 µM; in [3], 0.9 ± 0.1 µM; in [4], 1 ± 0.1 µM; in [5], 1.4 ± 0.1 µM; in [6] it was 1.1 µM.

For the molecule `C#Cc1cccc(Nc2ncnc3cc(OCCOC)c(OCCOC)cc23)c1` [Erlotinib], in [9], the IC50 is […].
